Laboratory results: US20260008784A1 (VASTHERA CO., LTD., priority 2022, published 2026)

Columns and labels:
[1] = tested on: yeast thioredoxin (Trx)/yeast Trx reductase (TR); assay: Peroxidase activity assay (H2O2 reduction, NADPH oxidation); type: biochemical; settings: 50 μM test compound, 3 μM yeast Trx, 1.5 μM yeast TR, 250 μM NADPH, 1.2 mM H2O2, 30° C.; NADPH oxidized per minute
How it was run: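 Buffer: 50 mM HEPES pH 7.0, 1 mM EDTA, 250 μM NADPH, 3 μM yeast Trx, 1.5 μM yeast TR, 50 μM test compound; reaction started with 1.2 mM H2O2. A340 decrease followed at 30° C for 12 min. Initial rate is NADPH oxidized per minute, taken from the linear slope.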

[2] = Measurement of redox potential (DTT redox buffers, HPLC); type: physicochemical; settings: DTT(Red)/DTT(Ox) redox buffers, 3 h, 30° C., 50% reduction of test compound
[3] = tested on: Tyr 857 phosphorylation of PDGF receptor-β (PDGFRβ) in HASMC; assay: Immunoblot of PDGF-mediated signaling in PrxII knock-down HASMC; type: cell-based, human; settings: for Effect on phosphorylation of Tyr 857 on PDGFR: HASMC depleted of PrxII expression, FIG. 2
How it was run: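 HASMC and PASMC with PrxII knocked down by siRNA were treated with test compounds and PDGF-stimulated. Lysates in Hepes pH 7.0/Triton X-100 buffer with phosphatase and protease inhibitors were immunoblotted with anti-phospho-Tyr 857 PDGFRβ antibody. Membranes were stripped and reprobed.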

[4] = tested on: human aortic endothelial cell (HAEC); assay: VEGF-induced proliferation assay, HAEC (PrxII siRNA); type: cell-based; settings: for Degree of HAEC proliferation: VEGF-A 25 ng/mL, percent of untreated control; for EC50: Homo sapiens, Endothelial cell, effective concentration increasing cell proliferation by 50%, VEGF-stimulated
Procedure: HAECs and PAECs were transfected with a PrxII-specific siRNA using RNAi MAX transfection reagent according to manufacturer's protocol. After 24 hours, transfected cells (3,000 cells/well) were seeded in a 96-well culture plate. At 12 h after seeding, cells were serum-starved for additional 18 h in EBM basal medium containing 0.5% FBS. Test compounds were serially diluted with the same basal medium containing 0.5% FBS, added to the cells ([…]), and incubated for 2 h. After treatment, cells were placed in fresh EBM medium containing 0.5% FBS and VEGF-A (25 ng/mL) for growth factor stimulation and further cultured for 24 h.
The degree of cell proliferation was measured using the Cell Titer-GLO kit ([…]). Data are the percent of luminescence intensity averaged from three replicate wells versus that of untreated control group.
In human aortic endothelial cell (HAEC) and human pulmonary artery endothelial cell (PAEC) in which PrxII was knocked out by transfecting the PrxII siRNA, the ability of test compounds to augment the VEGF-induced proliferation of vascular endothelial cells was evaluated. In Table 7, the degree of proliferation in the compound-treated groups is expressed as percent of the degree of proliferation in untreated control group. The effective concentrations of test compounds increasing cell proliferation by 50% (EC50) is also listed.

SMILES | Peroxidase activity for H2O2 reduction [1] | Midpoint redox potential (E m) [2] | Effect on phosphorylation of Tyr 857 on PDGFR [3] | Concentrations at which phosphorylation of Tyr 857 on PDGFRβ is significantly reduced ([3]; HASMCs, PrxII knock-down, FIG. 1) | Degree of HAEC proliferation ([4]; 2.5 nM) | Degree of HAEC proliferation ([4]; 5 nM) | Degree of HAEC proliferation ([4]; 10 nM) | Degree of HAEC proliferation ([4]; 25 nM) | Degree of HAEC proliferation ([4]; 50 nM) | Degree of HAEC proliferation ([4]; 100 nM) | EC50 [4]
CN1C(=O)C2(C)SSCC1C(=O)N2C (stereo not shown) [Compound 1, 1,6,8-trimethyl-2,3-dithia-6,8-diazabicyclo[3.2.2]nonane-7,9-dione] | 4.92 nmol/min | −285.25 mV | strongly abolish the phosphorylation | above 2.5 nM | 113.8% | 143.7% | 162.9% | 187.8% | 164.7% | 170.2% | 4.93 nM
CN1C(=O)C2CSSC1(C)C(=O)N2Cc1ccc2ccccc2n1 (stereo not shown) [Compound 5, 1,8-dimethyl-6-(quinolin-2-ylmethyl)-2,3-dithia-6,8-diazabicyclo[3.2.2]nonane-7,9-dione] | 4.80 nmol/min | −290.3 mV | strongly abolish the phosphorylation |  | 112.2% | 129.7% | 165.6% | 191.6% | 172.7% | 180.1% | 5.31 nM
O=C1C2CSSC3(COCCN13)C(=O)N2Cc1ccccc1 (stereo not shown) [Compound 8, 12-benzyltetrahydro-5H,10H-4,10a-(epiminomethano)[1,4]oxazino[3,4-c][1,2,4]dithia zepine-5,11-dione] | 4.91 nmol/min | −272.6 mV |  |  | 107.3% | 147.3% | 186.3% | 204.8% | 157.0% | 161.6% | 5.04 nM
CCN1C(=O)C2(C)SSCC1C(=O)N2CC (stereo not shown) [Compound 20, 6,8-diethyl-1-methyl-2,3-dithia-6,8-diazabicyclo[3.2.2]nonane-7,9-dione] | 4.78 nmol/min | −296.79 mV | strongly abolish the phosphorylation |  | 116.4% | 120.3% | 136.3% | 155.9% | 169.5% | 187.6% | 10.2 nM
